Laboratory results from the supplement of paper PMC8671470.

test system: HL-60; assay: area under dose-response curve (viability, 1 nM-10 uM) (fraction (0-1)); higher = more sensitive; conditions: 72 h; co-treatment: AZD3965 100 nM
How it was run: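 Four-parameter log-logistic fits in drc and PharmacoGx supplied area under the curve where it is given. Underlying viability came from CellTiter-Glo, normalised to DMSO and proteasome-inhibitor wells, with the proteasome inhibitor at 10 μM. HL-60 cells in RPMI 1640 plus 10% FBS had been rescreened against the full library at five tenfold concentrations of 1–10,000 nM, in duplicate on 384-well plates, with DMSO or 100 nM of one of three metabolic inhibitors, for 72 h at 37 °C, 5% CO2.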

Row | SMILES | area under dose-response curve
1 | O=c1cc(N2CCOCC2)oc2c(-c3ccccc3)cccc12 | < 0.0301
2 | O=C1C(SCCO)=C(SCCO)C(=O)c2ccccc21 | 0.139
3 | O=C(O)CC[N+](=O)[O-] [3-nitropropionic acid] | < 0.0301
4 | O=C(/C=C/c1ccc(O)c(O)c1)OCCc1ccccc1 [Caffeic acid phenethyl ester] | 0.0691
5 | CCN(CC)C(=S)SSC(=S)N(CC)CC [Disulfiram] | < 0.0301
6 | c1cc(-c2cnn3cc(-c4ccc(OCCN5CCCCC5)cc4)cnc23)ccn1 [Dorsomorphin] | 0.0329
7 | CN(Cc1cnc2nc(N)nc(N)c2n1)c1ccc(C(=O)N[C@@H](CCC(=O)O)C(=O)O)cc1 [Methotrexate] | 0.618
8 | CN(CCOc1ccc(Cc2sc(O)nc2O)cc1)c1ccccn1 [Rosiglitazone] | < 0.0301

same assay, conditions: 72 h; co-treatment: DMSO vehicle

Row | SMILES | area under dose-response curve
9 | O=C1C(SCCO)=C(SCCO)C(=O)c2ccccc21 | 0.114
10 | O=C(O)CC[N+](=O)[O-] [3-nitropropionic acid] | < 0.0301
11 | O=C(/C=C/c1ccc(O)c(O)c1)OCCc1ccccc1 [Caffeic acid phenethyl ester] | 0.0547
12 | CCN(CC)C(=S)SSC(=S)N(CC)CC [Disulfiram] | < 0.0301
13 | c1cc(-c2cnn3cc(-c4ccc(OCCN5CCCCC5)cc4)cnc23)ccn1 [Dorsomorphin] | 0.0501
14 | CN(Cc1cnc2nc(N)nc(N)c2n1)c1ccc(C(=O)N[C@@H](CCC(=O)O)C(=O)O)cc1 [Methotrexate] | 0.523
15 | CN(CCOc1ccc(Cc2sc(O)nc2O)cc1)c1ccccn1 [Rosiglitazone] | < 0.0301

same assay, conditions: 72 h; co-treatment: GSK2194069 100 nM

Row | SMILES | area under dose-response curve
16 | O=c1cc(N2CCOCC2)oc2c(-c3ccccc3)cccc12 | < 0.0301
17 | O=C1C(SCCO)=C(SCCO)C(=O)c2ccccc21 | 0.125
18 | O=C(O)CC[N+](=O)[O-] [3-nitropropionic acid] | < 0.0301
19 | O=C(/C=C/c1ccc(O)c(O)c1)OCCc1ccccc1 [Caffeic acid phenethyl ester] | 0.0593
20 | CCN(CC)C(=S)SSC(=S)N(CC)CC [Disulfiram] | < 0.0301
21 | c1cc(-c2cnn3cc(-c4ccc(OCCN5CCCCC5)cc4)cnc23)ccn1 [Dorsomorphin] | < 0.0301
22 | CN(Cc1cnc2nc(N)nc(N)c2n1)c1ccc(C(=O)N[C@@H](CCC(=O)O)C(=O)O)cc1 [Methotrexate] | 0.515
23 | CN(CCOc1ccc(Cc2sc(O)nc2O)cc1)c1ccccn1 [Rosiglitazone] | < 0.0301

same assay, conditions: 72 h; co-treatment: pictilisib 100 nM

Row | SMILES | area under dose-response curve
24 | O=c1cc(N2CCOCC2)oc2c(-c3ccccc3)cccc12 | 0.058
25 | O=C1C(SCCO)=C(SCCO)C(=O)c2ccccc21 | 0.192
26 | O=C(O)CC[N+](=O)[O-] [3-nitropropionic acid] | < 0.0301
27 | O=C(/C=C/c1ccc(O)c(O)c1)OCCc1ccccc1 [Caffeic acid phenethyl ester] | 0.138
28 | CCN(CC)C(=S)SSC(=S)N(CC)CC [Disulfiram] | < 0.0301
29 | c1cc(-c2cnn3cc(-c4ccc(OCCN5CCCCC5)cc4)cnc23)ccn1 [Dorsomorphin] | 0.112
30 | CN(Cc1cnc2nc(N)nc(N)c2n1)c1ccc(C(=O)N[C@@H](CCC(=O)O)C(=O)O)cc1 [Methotrexate] | 0.544
31 | CN(CCOc1ccc(Cc2sc(O)nc2O)cc1)c1ccccn1 [Rosiglitazone] | < 0.0301

test system: LAMA-84; assay: cell viability (% survival relative to DMSO control, bortezomib = 0%); higher = less cytotoxic; conditions: 1 nM; 72 h
How it was run: (§1)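 Fifteen myeloid leukaemia cell lines were exposed to compounds at 1, 10, 100, 1000 or 10000 nM in 384-well plates for 72 h at 37 °C and 5% CO2. Viability was read by CellTiter-Glo luminescence and normalised, with vehicle as 100% and a 10 µM positive control as 0%. Values are percent survival averaged over duplicates.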

Row | SMILES | cell viability
32 | O=c1cc(N2CCOCC2)oc2c(-c3ccccc3)cccc12 | 127%
33 | O=C1C(SCCO)=C(SCCO)C(=O)c2ccccc21 | 105%
34 | Cn1cc(-c2ccncc2)c(-c2ccc(OCc3ccc4ccccc4n3)cc2)n1 | 104%
35 | O=C(O)CC[N+](=O)[O-] [3-nitropropionic acid] | 104%
36 | O=C(/C=C/c1ccc(O)c(O)c1)OCCc1ccccc1 [Caffeic acid phenethyl ester] | 105%
37 | CCN(CC)C(=S)SSC(=S)N(CC)CC [Disulfiram] | 93.5%
38 | c1cc(-c2cnn3cc(-c4ccc(OCCN5CCCCC5)cc4)cnc23)ccn1 [Dorsomorphin] | 96.4%
39 | CN(Cc1cnc2nc(N)nc(N)c2n1)c1ccc(C(=O)N[C@@H](CCC(=O)O)C(=O)O)cc1 [Methotrexate] | 98.8%
40 | CN(CCOc1ccc(Cc2sc(O)nc2O)cc1)c1ccccn1 [Rosiglitazone] | 99.3%

same assay, conditions: 10 nM; 72 h

Row | SMILES | cell viability
41 | O=c1cc(N2CCOCC2)oc2c(-c3ccccc3)cccc12 | 108%
42 | O=C1C(SCCO)=C(SCCO)C(=O)c2ccccc21 | 95.6%
43 | Cn1cc(-c2ccncc2)c(-c2ccc(OCc3ccc4ccccc4n3)cc2)n1 | 114%
44 | O=C(O)CC[N+](=O)[O-] [3-nitropropionic acid] | 103%
45 | O=C(/C=C/c1ccc(O)c(O)c1)OCCc1ccccc1 [Caffeic acid phenethyl ester] | 104%
46 | CCN(CC)C(=S)SSC(=S)N(CC)CC [Disulfiram] | 94.5%
47 | c1cc(-c2cnn3cc(-c4ccc(OCCN5CCCCC5)cc4)cnc23)ccn1 [Dorsomorphin] | 98.8%
48 | CN(Cc1cnc2nc(N)nc(N)c2n1)c1ccc(C(=O)N[C@@H](CCC(=O)O)C(=O)O)cc1 [Methotrexate] | 34%
49 | CN(CCOc1ccc(Cc2sc(O)nc2O)cc1)c1ccccn1 [Rosiglitazone] | 106%

same assay, conditions: 100 nM; 72 h

Row | SMILES | cell viability
50 | O=c1cc(N2CCOCC2)oc2c(-c3ccccc3)cccc12 | 46.1%
51 | O=C1C(SCCO)=C(SCCO)C(=O)c2ccccc21 | 101%
52 | Cn1cc(-c2ccncc2)c(-c2ccc(OCc3ccc4ccccc4n3)cc2)n1 | 98.4%
53 | O=C(O)CC[N+](=O)[O-] [3-nitropropionic acid] | 98.6%
54 | O=C(/C=C/c1ccc(O)c(O)c1)OCCc1ccccc1 [Caffeic acid phenethyl ester] | 98.1%
55 | CCN(CC)C(=S)SSC(=S)N(CC)CC [Disulfiram] | 94.4%
56 | c1cc(-c2cnn3cc(-c4ccc(OCCN5CCCCC5)cc4)cnc23)ccn1 [Dorsomorphin] | 96.5%
57 | CN(Cc1cnc2nc(N)nc(N)c2n1)c1ccc(C(=O)N[C@@H](CCC(=O)O)C(=O)O)cc1 [Methotrexate] | 22.7%
58 | CN(CCOc1ccc(Cc2sc(O)nc2O)cc1)c1ccccn1 [Rosiglitazone] | 100%

same assay, conditions: 1000 nM; 72 h

Row | SMILES | cell viability
59 | O=c1cc(N2CCOCC2)oc2c(-c3ccccc3)cccc12 | 84.2%
60 | O=C1C(SCCO)=C(SCCO)C(=O)c2ccccc21 | 36.1%
61 | Cn1cc(-c2ccncc2)c(-c2ccc(OCc3ccc4ccccc4n3)cc2)n1 | 95.8%
62 | O=C(O)CC[N+](=O)[O-] [3-nitropropionic acid] | 97.5%
63 | O=C(/C=C/c1ccc(O)c(O)c1)OCCc1ccccc1 [Caffeic acid phenethyl ester] | 89.3%
64 | CCN(CC)C(=S)SSC(=S)N(CC)CC [Disulfiram] | 90.8%
65 | c1cc(-c2cnn3cc(-c4ccc(OCCN5CCCCC5)cc4)cnc23)ccn1 [Dorsomorphin] | 96.1%
66 | CN(Cc1cnc2nc(N)nc(N)c2n1)c1ccc(C(=O)N[C@@H](CCC(=O)O)C(=O)O)cc1 [Methotrexate] | 19.4%
67 | CN(CCOc1ccc(Cc2sc(O)nc2O)cc1)c1ccccn1 [Rosiglitazone] | 95.6%

same assay, conditions: 10000 nM; 72 h

Row | SMILES | cell viability
68 | O=c1cc(N2CCOCC2)oc2c(-c3ccccc3)cccc12 | 65.3%
69 | O=C1C(SCCO)=C(SCCO)C(=O)c2ccccc21 | 1.35%
70 | Cn1cc(-c2ccncc2)c(-c2ccc(OCc3ccc4ccccc4n3)cc2)n1 | 60%
71 | O=C(O)CC[N+](=O)[O-] [3-nitropropionic acid] | 103%
72 | O=C(/C=C/c1ccc(O)c(O)c1)OCCc1ccccc1 [Caffeic acid phenethyl ester] | 36.3%
73 | CCN(CC)C(=S)SSC(=S)N(CC)CC [Disulfiram] | 67.7%
74 | c1cc(-c2cnn3cc(-c4ccc(OCCN5CCCCC5)cc4)cnc23)ccn1 [Dorsomorphin] | 28.8%
75 | CN(Cc1cnc2nc(N)nc(N)c2n1)c1ccc(C(=O)N[C@@H](CCC(=O)O)C(=O)O)cc1 [Methotrexate] | 20.8%
76 | CN(CCOc1ccc(Cc2sc(O)nc2O)cc1)c1ccccn1 [Rosiglitazone] | 97.4%

test system: NOMO-1; assay: as above; conditions: 1 nM; 72 h
How it was run: as §1

Row | SMILES | cell viability
77 | O=c1cc(N2CCOCC2)oc2c(-c3ccccc3)cccc12 | 122%
78 | O=C1C(SCCO)=C(SCCO)C(=O)c2ccccc21 | 105%
79 | Cn1cc(-c2ccncc2)c(-c2ccc(OCc3ccc4ccccc4n3)cc2)n1 | 103%
80 | O=C(O)CC[N+](=O)[O-] [3-nitropropionic acid] | 94.8%
81 | O=C(/C=C/c1ccc(O)c(O)c1)OCCc1ccccc1 [Caffeic acid phenethyl ester] | 93.6%
82 | CCN(CC)C(=S)SSC(=S)N(CC)CC [Disulfiram] | 95.3%
83 | c1cc(-c2cnn3cc(-c4ccc(OCCN5CCCCC5)cc4)cnc23)ccn1 [Dorsomorphin] | 93.2%
84 | CN(Cc1cnc2nc(N)nc(N)c2n1)c1ccc(C(=O)N[C@@H](CCC(=O)O)C(=O)O)cc1 [Methotrexate] | 108%
85 | CN(CCOc1ccc(Cc2sc(O)nc2O)cc1)c1ccccn1 [Rosiglitazone] | 109%

same assay, conditions: 10 nM; 72 h

Row | SMILES | cell viability
86 | O=c1cc(N2CCOCC2)oc2c(-c3ccccc3)cccc12 | 96%
87 | O=C1C(SCCO)=C(SCCO)C(=O)c2ccccc21 | 99.7%
88 | Cn1cc(-c2ccncc2)c(-c2ccc(OCc3ccc4ccccc4n3)cc2)n1 | 98.8%
89 | O=C(O)CC[N+](=O)[O-] [3-nitropropionic acid] | 93.2%
90 | O=C(/C=C/c1ccc(O)c(O)c1)OCCc1ccccc1 [Caffeic acid phenethyl ester] | 96.3%
91 | CCN(CC)C(=S)SSC(=S)N(CC)CC [Disulfiram] | 99.4%
92 | c1cc(-c2cnn3cc(-c4ccc(OCCN5CCCCC5)cc4)cnc23)ccn1 [Dorsomorphin] | 105%
93 | CN(Cc1cnc2nc(N)nc(N)c2n1)c1ccc(C(=O)N[C@@H](CCC(=O)O)C(=O)O)cc1 [Methotrexate] | 94.8%
94 | CN(CCOc1ccc(Cc2sc(O)nc2O)cc1)c1ccccn1 [Rosiglitazone] | 107%

same assay, conditions: 100 nM; 72 h

Row | SMILES | cell viability
95 | O=c1cc(N2CCOCC2)oc2c(-c3ccccc3)cccc12 | 9.05%
96 | O=C1C(SCCO)=C(SCCO)C(=O)c2ccccc21 | 100%
97 | Cn1cc(-c2ccncc2)c(-c2ccc(OCc3ccc4ccccc4n3)cc2)n1 | 97%
98 | O=C(O)CC[N+](=O)[O-] [3-nitropropionic acid] | 101%
99 | O=C(/C=C/c1ccc(O)c(O)c1)OCCc1ccccc1 [Caffeic acid phenethyl ester] | 86.1%
100 | CCN(CC)C(=S)SSC(=S)N(CC)CC [Disulfiram] | 101%
101 | c1cc(-c2cnn3cc(-c4ccc(OCCN5CCCCC5)cc4)cnc23)ccn1 [Dorsomorphin] | 98.8%
102 | CN(Cc1cnc2nc(N)nc(N)c2n1)c1ccc(C(=O)N[C@@H](CCC(=O)O)C(=O)O)cc1 [Methotrexate] | 40.4%
103 | CN(CCOc1ccc(Cc2sc(O)nc2O)cc1)c1ccccn1 [Rosiglitazone] | 97.8%

same assay, conditions: 1000 nM; 72 h

Row | SMILES | cell viability
104 | O=c1cc(N2CCOCC2)oc2c(-c3ccccc3)cccc12 | 90.4%
105 | O=C1C(SCCO)=C(SCCO)C(=O)c2ccccc21 | 7.84%
106 | Cn1cc(-c2ccncc2)c(-c2ccc(OCc3ccc4ccccc4n3)cc2)n1 | 101%
107 | O=C(O)CC[N+](=O)[O-] [3-nitropropionic acid] | 104%
108 | O=C(/C=C/c1ccc(O)c(O)c1)OCCc1ccccc1 [Caffeic acid phenethyl ester] | 80.8%
109 | CCN(CC)C(=S)SSC(=S)N(CC)CC [Disulfiram] | 92%
110 | c1cc(-c2cnn3cc(-c4ccc(OCCN5CCCCC5)cc4)cnc23)ccn1 [Dorsomorphin] | 92.7%
111 | CN(Cc1cnc2nc(N)nc(N)c2n1)c1ccc(C(=O)N[C@@H](CCC(=O)O)C(=O)O)cc1 [Methotrexate] | 29.4%
112 | CN(CCOc1ccc(Cc2sc(O)nc2O)cc1)c1ccccn1 [Rosiglitazone] | 105%

same assay, conditions: 10000 nM; 72 h

Row | SMILES | cell viability
113 | O=c1cc(N2CCOCC2)oc2c(-c3ccccc3)cccc12 | 57.1%
114 | O=C1C(SCCO)=C(SCCO)C(=O)c2ccccc21 | -0.348%
115 | Cn1cc(-c2ccncc2)c(-c2ccc(OCc3ccc4ccccc4n3)cc2)n1 | 93.9%
116 | O=C(O)CC[N+](=O)[O-] [3-nitropropionic acid] | 93.4%
117 | O=C(/C=C/c1ccc(O)c(O)c1)OCCc1ccccc1 [Caffeic acid phenethyl ester] | 85.5%
118 | CCN(CC)C(=S)SSC(=S)N(CC)CC [Disulfiram] | 88.9%
